The results in this text go back to US20260355184A1, “SMALL MOLECULE DEGRADERS OF HIV-1 TAT PROTEIN” (priority 2022, published 2026).

Read-outs that look alike come from different tables or passages of the source. Where only a bound is given, the exact number is not on record here.

Usually IC50 stands for the concentration at which inhibition is half-maximal. A word on the CC50: it is the concentration giving 50% cytotoxicity. Read a low CC50 as greater toxicity to the cells.

For one data set, the system named is HIV NL4.3 strain. Nature of the data set: HIV infectivity assay, reporter cell line HeLa-CD4-LTR-LacZ, β-Gal activity (Tat protein inhibition). The following applies: Human immunodeficiency virus 1, read-out: Infectivity IC50, HeLa-CD4-LTR-LacZ. Type of data set: cell-based, HIV-1 (NL4.3). The method, then: (§1) Next, the activity of these leads against HIV infection was evaluated using the reporter cell line HeLa-CD4-LTR-LacZ, which stably expresses the β-galactosidase (β-Gal) gene under the control of the HIV 5′ LTR. The HIV NL4.3 strain was used for these studies and β-Gal activity was measured 72 hrs post infection (FIG. 3A). Cytotoxicity assays using Cell-Titer-Glo were performed in parallel to assess cell viability (FIG. 3A). […] Their anti-HIV activity was further assessed in acute replication of Jurkat T cells with the NL4.3 strain (FIG. 3A). […] These OM10.1 cells contain a single integrated wild-type provirus, while ACH-2 cells contain a single integrated provirus with a TAR mutation C37T, defective Tat-TAR feedback loop (FIG. 3B).

Data set [1] can be described thus: Cytotoxicity assay, Cell-Titer-Glo, HeLa-CD4-LTR-LacZ. The settings on record: human, hela-cd4-ltr-lacz cells, Infectivity CC50, HeLa-CD4-LTR-LacZ. The procedure:
as §1

For `O=C(NCCCN1CCCC1=O)c1nn(-c2ccccc2)c2ccccc12` [compound 46715], in the data set with HIV NL4.3 strain (analogs of TT-44881 (Table 1)), the IC50 lay in the range of 50 to 100 µM. For the same compound, the half-maximal cytotoxic concentration (CC50) in data set [1] (analogs of TT-44881 (Table 1)) was over 100 µM.

Consider `O=C(NCCCN1CCCC1=O)c1ccc(=O)n(-c2ccccc2)c1` [compound 47155], for which the IC50 in the data set with HIV NL4.3 strain (analogs of TT-44881 (Table 1)) is over 100 µM. In data set [1] (analogs of TT-44881 (Table 1)), this compound showed a CC50 of over 100 µM.

For the compound `O=C(NCCCN1CCCC1=O)c1nn(CC2CCC2)c2c1CCC2` [compound 46933], the IC50 in the data set on HIV NL4.3 strain (analogs of TT-44881 (Table 1)) is over 100 µM. In data set [1] (analogs of TT-44881 (Table 1)), the CC50 was over 100 µM.

For the compound `COc1ccc(C(F)(F)F)cc1NC(=O)Cn1cccc(F)c1=O` [compound 46765], in the data set on HIV NL4.3 strain (analogs of TT-44863 (Table 2)), the IC50 is over 100 µM. The compound further came in with a CC50 in data set [1] (analogs of TT-44863 (Table 2)) of over 100 µM.

Take `CC(C)(C)OC(=O)COCCOCCOc1ccc(C(F)(F)F)cc1NC(=O)Cn1cc(C(F)(F)F)cc(Cl)c1=O` [compound 47]: the IC50 in the data set on HIV NL4.3 strain (analogs of TT-44863 (Table 2)) fell in the range of 50 to 100 µM. Also, the CC50 in data set [1] (analogs of TT-44863 (Table 2)) is over 100 µM.

`CCCC(C(=O)NCCCn1ccnc1C)(c1ccccc1)c1ccccc1` [3-65]: the IC50 with HIV NL4.3 strain (analogs of TT-44856 (Table 3)) fell in the range of 1 to 10 µM. This compound also came in with a CC50 in data set [1] (analogs of TT-44856 (Table 3)) of 50 to 100 µM.

Consider `O=C(NCCCn1ccnc1)C(c1ccccc1)c1ccccc1` [compound 46608], for which, in the data set on HIV NL4.3 strain (analogs of TT-44856 (Table 3)), the IC50 is 1 to 10 µM. Moreover, the CC50 in data set [1] (analogs of TT-44856 (Table 3)) was over 100 µM.

Regarding `O=C(NCc1ccccc1N1CCCCC1)c1cn(-c2ccccc2)c2ccccc12` [compound 41924], the IC50 in the data set with HIV NL4.3 strain (analogs of TT-44881 (Table 1)) was over 100 µM. Also, the CC50 in data set [1] (analogs of TT-44881 (Table 1)) was over 100 µM.

Consider `O=C(NCCCN1CCCC1=O)c1c[nH]nc1C1CC1` [compound 46821], for which the IC50 in the data set on HIV NL4.3 strain (analogs of TT-44881 (Table 1)) is over 100 µM. Further, the CC50 in data set [1] (analogs of TT-44881 (Table 1)) is over 100 µM.

For `CC(C)c1nccn1CCCNC(=O)C(C)(c1ccccc1)c1ccccc1` [3-54], in the data set with HIV NL4.3 strain (analogs of TT-44856 (Table 3)), the IC50 fell in the range of 1 to 20 µM. Also, the CC50 in data set [1] (analogs of TT-44856 (Table 3)) lay in the range of 50 to 100 µM.

Consider `O=C(NCc1ccc(Cl)cn1)c1cn(-c2ccc(F)cc2)c2ccccc12` [compound 41980], for which, in the data set on HIV NL4.3 strain (analogs of TT-44881 (Table 1)), the IC50 was over 100 µM. For the same compound, the CC50 in data set [1] (analogs of TT-44881 (Table 1)) amounted to 35.6 µM.

`O=C(O)c1ccc(CNC(=O)c2cn(-c3ccccc3)c3ccccc23)cc1` [compound 41784]: the IC50 with HIV NL4.3 strain (analogs of TT-44881 (Table 1)) was over 100 µM. This compound returned a CC50 in data set [1] (analogs of TT-44881 (Table 1)) of over 100 µM.

On to `COCCOc1ccc(C(F)(F)F)cc1NC(=O)Cn1cccc(Cl)c1=O` [compound 46704], for which, in the data set with HIV NL4.3 strain (analogs of TT-44863 (Table 2)), the IC50 is over 100 µM. In data set [1] (analogs of TT-44863 (Table 2)), the CC50 is over 100 µM.

Take `O=C(NCCCn1ccnc1)c1n[nH]c2c1CCC2` [compound 46726]: the IC50 with HIV NL4.3 strain (analogs of TT-44881 (Table 1)) was over 100 µM. This compound also yielded a CC50 in data set [1] (analogs of TT-44881 (Table 1)) of over 100 µM.

Regarding `COc1ccc(C(F)(F)F)cc1NC(=O)C(CCO)n1cc(C(F)(F)F)cc(Cl)c1=O` (centres unmarked) [compound 60], the IC50 with HIV NL4.3 strain (analogs of TT-44863 (Table 2)) lay in the range of 10 to 50 µM. In data set [1] (analogs of TT-44863 (Table 2)), the CC50 was 10 to 30 µM.

Turning to `O=C(NCCCN1CCCC1=O)c1cnn(-c2ccccc2)c1` [compound 46935], in the data set with HIV NL4.3 strain (analogs of TT-44881 (Table 1)), the IC50 is over 100 µM. This compound also yielded a CC50 in data set [1] (analogs of TT-44881 (Table 1)) of over 100 µM.

On to `O=C(NCCCN1CCCC1=O)c1n[nH]c2ccccc12` [compound 46826], for which, in the data set with HIV NL4.3 strain (analogs of TT-44881 (Table 1)), the concentration for half-maximal inhibition (IC50) was over 100 µM. The compound also came in with a CC50 in data set [1] (analogs of TT-44881 (Table 1)) of over 100 µM.

Take `O=C(NCCCn1ccnc1)c1nn(-c2ccccc2)c2c1CCC2` [3-63]: in the data set on HIV NL4.3 strain (analogs of TT-44856 (Table 3)), the IC50 fell in the range of 1 to 10 µM. The same compound yielded a CC50 in data set [1] (analogs of TT-44856 (Table 3)) of 1 to 10 µM.

Regarding `N#Cc1ccc(C(F)(F)F)cc1NC(=O)Cn1cc(C(F)(F)F)cc(Cl)c1=O` [compound 47061], the IC50 with HIV NL4.3 strain (analogs of TT-44863 (Table 2)) was over 100 µM. In data set [1] (analogs of TT-44863 (Table 2)), this compound showed a CC50 of over 100 µM.

As to `CC(C)c1nn(-c2ccccc2)cc1C(=O)NCCCN1CCCC1=O` [compound 47092], in the data set with HIV NL4.3 strain (analogs of TT-44881 (Table 1)), the IC50 is over 100 µM. In data set [1] (analogs of TT-44881 (Table 1)), this compound came in with a CC50 of over 100 µM.

For `COc1ccccc1NC(=O)Cn1cc(C(F)(F)F)cc(Cl)c1=O` [compound 46605], the IC50 in the data set with HIV NL4.3 strain (analogs of TT-44863 (Table 2)) is over 100 µM. The same compound displayed a CC50 in data set [1] (analogs of TT-44863 (Table 2)) of over 100 µM.

In the case of `CCC(C(=O)NCCCn1ccnc1)c1ccccc1` (centres unmarked) [3-72], the IC50 in the data set with HIV NL4.3 strain (analogs of TT-44856 (Table 3)) is over 100 µM. Also, in data set [1] (analogs of TT-44856 (Table 3)), the CC50 is over 100 µM.

In the case of `O=C(NCCCN1CCCC1=O)c1nn(-c2ccccc2)c2c1CCC1(C2)OCCO1` [GB-10], the IC50 in the data set with HIV NL4.3 strain (analogs of TT-44881 (Table 1)) is over 100 µM. The same compound had a CC50 in data set [1] (analogs of TT-44881 (Table 1)) of over 100 µM.

As for `CC(C(=O)Nc1cc(OCc2ccccc2)ccn1)(c1ccccc1)c1ccccc1` [3-44], the IC50 in the data set with HIV NL4.3 strain (analogs of TT-44856 (Table 3)) is 1 to 30 µM. The compound also returned a CC50 in data set [1] (analogs of TT-44856 (Table 3)) of over 100 µM.

Consider `CCCC(C(=O)NCCCn1ccnc1)(c1ccccc1)c1ccccc1` [3-57], for which the IC50 with HIV NL4.3 strain (analogs of TT-44856 (Table 3)) lay in the range of 1 to 10 µM. In data set [1] (analogs of TT-44856 (Table 3)), this compound gave a CC50 of over 100 µM.

For `CCOC(=O)c1sc(NC(=O)Cn2cc(C(F)(F)F)cc(Cl)c2=O)nc1C(F)(F)F` [compound 47063], in the data set with HIV NL4.3 strain (analogs of TT-44863 (Table 2)), the IC50 was found to be 23.7 µM. Also, in data set [1] (analogs of TT-44863 (Table 2)), the CC50 was in the range of 25 to 50 µM.

Regarding `CS(=O)(=O)N1CCN(C(=O)c2cn(-c3ccccc3)c3ccccc23)CC1` [compound 41798], in the data set with HIV NL4.3 strain (analogs of TT-44881 (Table 1)), the half-maximal inhibitory concentration (IC50) is over 100 µM. Also, the CC50 in data set [1] (analogs of TT-44881 (Table 1)) is over 100 µM.

In the case of `COc1ccc(C(C(=O)NCCCn2ccnc2)c2ccccc2)cc1` (centres unmarked) [3-48], in the data set with HIV NL4.3 strain (analogs of TT-44856 (Table 3)), the IC50 was in the range of 20 to 50 µM. Moreover, in data set [1] (analogs of TT-44856 (Table 3)), the CC50 was over 100 µM.
